Test results: article PMC3961306, “Comparison of the Cancer Gene Targeting and Biochemical Selectivities of All Targeted Kinase Inhibitors Approved for Clinical Use” (PLoS ONE, 2014)

Key:
Experiment in all cases: Kinase profiling in a biochemical assay panel (mobility shift assays and ELISA), %-inhibition at 1 μM; selectivity entropy
[1] = target: panel of more than 300 wild-type and mutant kinases (313 kinase panel) (Homo sapiens, UniProt Q9UQM7); details: kinase CaMK2α; 1 μM compound
[2] = target: panel of more than 300 wild-type and mutant kinases (313 kinase panel) (Homo sapiens, UniProt P22455, N535K); details: kinase FGFR4(N535K); compound at 1 μM
panel of more than 300 wild-type and mutant kinases (313 kinase panel) (Homo sapiens, UniProt P22455, N535K), sequence (P22455 22-802 N535K): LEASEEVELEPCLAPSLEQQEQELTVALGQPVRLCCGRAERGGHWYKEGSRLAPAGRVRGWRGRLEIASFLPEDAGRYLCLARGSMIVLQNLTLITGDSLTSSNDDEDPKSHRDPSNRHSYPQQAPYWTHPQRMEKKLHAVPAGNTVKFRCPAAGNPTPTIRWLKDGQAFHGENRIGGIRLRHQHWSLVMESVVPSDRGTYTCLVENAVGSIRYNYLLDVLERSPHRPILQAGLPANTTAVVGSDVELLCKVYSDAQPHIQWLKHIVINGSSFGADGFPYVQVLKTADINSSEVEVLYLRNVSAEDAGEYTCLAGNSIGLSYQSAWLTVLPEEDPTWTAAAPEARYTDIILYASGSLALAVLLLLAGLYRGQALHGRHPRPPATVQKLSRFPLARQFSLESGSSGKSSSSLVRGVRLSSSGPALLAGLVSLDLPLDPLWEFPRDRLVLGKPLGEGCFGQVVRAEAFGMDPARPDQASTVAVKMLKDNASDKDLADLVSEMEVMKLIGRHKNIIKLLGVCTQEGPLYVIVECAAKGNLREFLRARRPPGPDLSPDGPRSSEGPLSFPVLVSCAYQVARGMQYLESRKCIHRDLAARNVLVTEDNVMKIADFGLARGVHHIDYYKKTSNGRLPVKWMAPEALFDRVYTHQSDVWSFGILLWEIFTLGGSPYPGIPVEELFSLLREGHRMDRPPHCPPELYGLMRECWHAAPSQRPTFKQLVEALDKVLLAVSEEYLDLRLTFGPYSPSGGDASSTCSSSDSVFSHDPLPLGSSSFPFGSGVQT

[3] = target: panel of more than 300 wild-type and mutant kinases (313 kinase panel) (Homo sapiens, UniProt P23458); details: kinase JAK1; compound at 1 μM
[4] = target: panel of more than 300 wild-type and mutant kinases (313 kinase panel) (Homo sapiens, UniProt Q9UK32); details: kinase RSK4; 1 μM
panel of more than 300 wild-type and mutant kinases (313 kinase panel) (Homo sapiens, UniProt Q9UK32), sequence (Q9UK32 whole entry, change not shown): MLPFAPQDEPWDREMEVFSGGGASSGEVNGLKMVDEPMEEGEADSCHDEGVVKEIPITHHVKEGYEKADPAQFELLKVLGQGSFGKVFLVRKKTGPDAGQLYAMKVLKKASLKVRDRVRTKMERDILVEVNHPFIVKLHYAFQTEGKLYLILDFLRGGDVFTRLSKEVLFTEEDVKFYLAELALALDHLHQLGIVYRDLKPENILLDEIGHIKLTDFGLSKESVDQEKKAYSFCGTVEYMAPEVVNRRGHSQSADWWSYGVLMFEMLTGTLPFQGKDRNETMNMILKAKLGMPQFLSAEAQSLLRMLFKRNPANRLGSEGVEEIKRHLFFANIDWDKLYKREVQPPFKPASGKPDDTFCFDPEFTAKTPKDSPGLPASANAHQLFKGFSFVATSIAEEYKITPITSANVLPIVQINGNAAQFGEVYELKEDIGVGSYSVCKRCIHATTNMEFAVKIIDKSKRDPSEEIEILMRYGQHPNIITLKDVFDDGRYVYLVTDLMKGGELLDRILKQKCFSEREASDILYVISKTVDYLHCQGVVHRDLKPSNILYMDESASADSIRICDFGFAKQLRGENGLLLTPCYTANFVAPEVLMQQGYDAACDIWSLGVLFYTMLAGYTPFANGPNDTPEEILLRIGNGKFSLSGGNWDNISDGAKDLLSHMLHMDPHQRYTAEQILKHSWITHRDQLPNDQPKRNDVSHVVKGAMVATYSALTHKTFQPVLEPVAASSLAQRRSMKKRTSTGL

[5] = target: T1, panel of more than 300 wild-type and mutant kinases (313 kinase panel) (Homo sapiens, UniProt P29322); details: kinase EPHA8; compound at 1 μM
T1 sequence (P29322 28-1005): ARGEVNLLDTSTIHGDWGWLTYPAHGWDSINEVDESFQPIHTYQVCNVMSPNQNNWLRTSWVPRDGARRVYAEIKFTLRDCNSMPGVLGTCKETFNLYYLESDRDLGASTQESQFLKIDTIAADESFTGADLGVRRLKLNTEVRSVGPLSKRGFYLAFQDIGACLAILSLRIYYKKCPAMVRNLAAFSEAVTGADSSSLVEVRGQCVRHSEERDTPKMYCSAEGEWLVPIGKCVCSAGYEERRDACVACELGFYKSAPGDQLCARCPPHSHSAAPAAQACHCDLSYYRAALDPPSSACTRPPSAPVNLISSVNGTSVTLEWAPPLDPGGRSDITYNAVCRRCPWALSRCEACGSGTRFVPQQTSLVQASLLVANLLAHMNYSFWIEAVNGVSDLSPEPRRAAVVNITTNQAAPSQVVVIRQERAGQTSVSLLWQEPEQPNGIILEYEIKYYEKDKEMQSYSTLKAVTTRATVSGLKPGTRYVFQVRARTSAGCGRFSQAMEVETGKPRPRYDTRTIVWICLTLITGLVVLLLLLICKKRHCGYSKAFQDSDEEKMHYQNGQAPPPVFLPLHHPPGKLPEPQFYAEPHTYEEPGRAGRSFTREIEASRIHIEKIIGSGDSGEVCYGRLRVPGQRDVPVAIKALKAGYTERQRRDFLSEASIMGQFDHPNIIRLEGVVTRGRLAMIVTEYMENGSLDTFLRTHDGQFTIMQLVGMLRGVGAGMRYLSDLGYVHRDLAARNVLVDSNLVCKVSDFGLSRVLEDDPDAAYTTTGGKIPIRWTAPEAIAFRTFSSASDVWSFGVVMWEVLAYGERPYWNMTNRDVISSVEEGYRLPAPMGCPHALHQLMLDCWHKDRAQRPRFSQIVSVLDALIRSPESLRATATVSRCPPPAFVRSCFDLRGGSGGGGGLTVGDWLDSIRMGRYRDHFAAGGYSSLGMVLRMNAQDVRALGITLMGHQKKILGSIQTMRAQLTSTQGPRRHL

[6] = target: T2, panel of more than 300 wild-type and mutant kinases (313 kinase panel) (Homo sapiens, UniProt Q13976); details: kinase PGK; 1 μM
T2 sequence (Q13976 1-671): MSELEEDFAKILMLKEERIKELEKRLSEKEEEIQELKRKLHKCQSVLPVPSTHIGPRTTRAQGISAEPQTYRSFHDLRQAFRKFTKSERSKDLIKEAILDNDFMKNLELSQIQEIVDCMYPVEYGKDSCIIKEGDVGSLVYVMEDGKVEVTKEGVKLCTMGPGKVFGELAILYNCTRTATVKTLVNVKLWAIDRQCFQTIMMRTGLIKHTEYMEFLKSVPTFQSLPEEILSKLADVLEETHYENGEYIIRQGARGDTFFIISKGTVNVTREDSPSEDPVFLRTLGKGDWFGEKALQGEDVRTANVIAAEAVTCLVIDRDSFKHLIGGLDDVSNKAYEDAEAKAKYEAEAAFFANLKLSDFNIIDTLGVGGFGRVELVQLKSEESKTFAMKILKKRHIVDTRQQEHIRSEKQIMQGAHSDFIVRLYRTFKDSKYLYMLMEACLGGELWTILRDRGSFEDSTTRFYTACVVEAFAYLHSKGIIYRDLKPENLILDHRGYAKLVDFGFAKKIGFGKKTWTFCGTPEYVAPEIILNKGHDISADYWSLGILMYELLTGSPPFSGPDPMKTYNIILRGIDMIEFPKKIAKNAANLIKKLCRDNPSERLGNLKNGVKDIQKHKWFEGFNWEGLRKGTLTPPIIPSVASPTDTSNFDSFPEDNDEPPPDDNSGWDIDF

[7] = target: panel of more than 300 wild-type and mutant kinases (313 kinase panel) (Homo sapiens, UniProt P53355); details: kinase DAPK1; compound at 1 μM
[8] = target: panel of more than 300 wild-type and mutant kinases (313 kinase panel) (Homo sapiens, UniProt Q13177); details: kinase PAK2; 1 μM
[9] = target: panel of more than 300 wild-type and mutant kinases (313 kinase panel) (Homo sapiens, UniProt Q9H422); details: kinase HIPK3; compound at 1 μM
[10] = target: panel of more than 300 wild-type and mutant kinases (313 kinase panel) (Homo sapiens, UniProt P22607, K650E); details: kinase FGFR3(K650E); compound at 1 μM
panel of more than 300 wild-type and mutant kinases (313 kinase panel) (Homo sapiens, UniProt P22607, K650E), sequence (P22607 23-806 K650E): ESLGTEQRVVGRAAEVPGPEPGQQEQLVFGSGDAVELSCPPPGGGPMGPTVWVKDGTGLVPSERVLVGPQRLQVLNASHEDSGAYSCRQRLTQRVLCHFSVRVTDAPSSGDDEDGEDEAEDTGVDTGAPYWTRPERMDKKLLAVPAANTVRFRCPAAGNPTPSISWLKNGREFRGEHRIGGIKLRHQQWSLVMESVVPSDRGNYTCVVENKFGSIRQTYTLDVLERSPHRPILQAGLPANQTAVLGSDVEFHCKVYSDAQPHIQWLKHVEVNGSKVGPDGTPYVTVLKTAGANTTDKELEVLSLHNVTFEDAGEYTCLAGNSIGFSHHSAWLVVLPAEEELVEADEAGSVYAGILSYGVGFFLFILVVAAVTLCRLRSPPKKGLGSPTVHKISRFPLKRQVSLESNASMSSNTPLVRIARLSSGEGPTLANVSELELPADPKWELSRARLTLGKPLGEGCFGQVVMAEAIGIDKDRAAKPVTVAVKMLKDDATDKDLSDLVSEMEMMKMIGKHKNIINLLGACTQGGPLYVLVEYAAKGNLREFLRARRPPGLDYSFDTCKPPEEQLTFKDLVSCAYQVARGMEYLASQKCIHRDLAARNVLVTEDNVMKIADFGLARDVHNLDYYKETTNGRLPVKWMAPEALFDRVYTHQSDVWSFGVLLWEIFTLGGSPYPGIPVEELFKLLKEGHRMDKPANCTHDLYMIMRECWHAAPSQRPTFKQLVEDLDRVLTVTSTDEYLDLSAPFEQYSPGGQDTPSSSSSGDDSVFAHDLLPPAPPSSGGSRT

[11] = target: panel of more than 300 wild-type and mutant kinases (313 kinase panel) (Homo sapiens, UniProt Q16644); details: kinase MAPKAPK3; compound at 1 μM
panel of more than 300 wild-type and mutant kinases (313 kinase panel) (Homo sapiens, UniProt Q16644), sequence (Q16644 whole entry, change not shown): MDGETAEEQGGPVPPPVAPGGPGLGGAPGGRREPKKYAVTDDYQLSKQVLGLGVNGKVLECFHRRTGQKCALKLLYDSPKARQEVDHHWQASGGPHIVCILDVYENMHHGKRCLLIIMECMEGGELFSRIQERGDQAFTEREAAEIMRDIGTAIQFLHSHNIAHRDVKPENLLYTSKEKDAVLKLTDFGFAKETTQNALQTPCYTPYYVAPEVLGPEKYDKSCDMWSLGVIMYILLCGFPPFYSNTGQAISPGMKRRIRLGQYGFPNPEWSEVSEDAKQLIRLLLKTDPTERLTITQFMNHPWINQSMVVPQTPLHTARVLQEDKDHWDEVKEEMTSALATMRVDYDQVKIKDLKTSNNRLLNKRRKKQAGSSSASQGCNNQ

panel of more than 300 wild-type and mutant kinases (313 kinase panel) (Homo sapiens, UniProt Q9UQM7), sequence (Q9UQM7 whole entry, stated change not applied): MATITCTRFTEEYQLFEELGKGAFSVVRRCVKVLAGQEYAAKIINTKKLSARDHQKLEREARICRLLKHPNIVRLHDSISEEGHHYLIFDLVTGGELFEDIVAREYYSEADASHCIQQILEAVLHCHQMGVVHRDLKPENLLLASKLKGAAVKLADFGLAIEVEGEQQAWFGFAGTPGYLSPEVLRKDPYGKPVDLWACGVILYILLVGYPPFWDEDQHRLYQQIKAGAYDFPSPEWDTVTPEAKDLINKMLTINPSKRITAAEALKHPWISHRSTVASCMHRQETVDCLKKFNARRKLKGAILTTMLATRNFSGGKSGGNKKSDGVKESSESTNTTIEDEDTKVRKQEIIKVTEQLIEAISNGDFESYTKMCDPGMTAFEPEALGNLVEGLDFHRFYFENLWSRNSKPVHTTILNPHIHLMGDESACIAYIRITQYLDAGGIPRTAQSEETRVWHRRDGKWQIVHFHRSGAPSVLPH

| SMILES | %-inhibition, CaMK2α [1] [%] | %-inhibition of FGFR4(N535K) [2] [%] | %-inhibition of JAK1 [3] [%] | %-inhibition of RSK4 [4] [%] | %-inhibition of EPHA8 [5] [%] | %-inhibition of PGK [6] [%] | %-inhibition of DAPK1 [7] [%] | %-inhibition of PAK2 [8] [%] | %-inhibition of HIPK3 [9] [%] | %-inhibition of FGFR3(K650E) [10] [%] | %-inhibition of MAPKAPK3 [11] [%] |
| --- | --- | --- | --- | --- | --- | --- | --- | --- | --- | --- | --- |
| CO[C@H]1C[C@@H]2CC[C@@H](C)[C@@](O)(O2)C(=O)C(=O)N2CCCC[C@H]2C(=O)O[C@H]([C@H](C)C[C@@H]2CC[C@@H](OCCO)[C@H](OC)C2)CC(=O)[C@H](C)/C=C(\C)[C@@H](O)[C@@H](OC)C(=O)[C@H](C)C[C@H](C)/C=C/C=C/C=C/1C [everolimus] | -8 | 9 | -7 | -8 | -3.63 | -6.44 | -15 | -8 | -8 | -4.55 | -15 |
| COc1cc2nccc(Oc3ccc(NC(=O)C4(C(=O)Nc5ccc(F)cc5)CC4)cc3)c2cc1OC [cabozantinib] | -8 | 39 | -1.59 | -3.65 | 98 | -3 | -10 | -5.44 | 67 | 26 | -9 |
| C[C@@H](Oc1cc(-c2cnn(C3CCNCC3)c2)cnc1N)c1c(Cl)ccc(F)c1Cl [crizotinib] | -2.77 | 6.5 | 47 | -1.58 | 82 | -2.6 | -4 | 5 | -6 | 52 | -13 |
| CCCS(=O)(=O)Nc1ccc(F)c(C(=O)c2c[nH]c3ncc(-c4ccc(Cl)cc4)cc23)c1F [vemurafenib] | -4.25 | 9 | 46 | -3 | 7 | -4.33 | -0.115 | 13 | -6 | 6.55 | 12 |
| O=S(=O)(c1cccc2cnccc12)N1CCCNCC1 [fasudil] | -0.681 | 0.156 | -1.43 | 16 | -10 | 44 | 10 | -16 | -0.764 | -0.641 | -14 |
| CC(=O)Nc1cccc(-n2c(=O)n(C3CC3)c(=O)c3c(Nc4ccc(I)cc4F)n(C)c(=O)c(C)c32)c1 [trametinib] | -1.65 | -5.47 | -1.83 | 0.208 | -8 | -1.31 | -6 | -9 | 0.0849 | -1.07 | -9 |
